Test results published in patent US8759051B2, “Control of contaminant microorganisms in fermentation processes with peroxygen-releasing compounds” (E I du Pont de Nemours and Company, priority 2010, dated 2014).
Values joined by “and” are separate entries in the source; they are usually repeats but may differ in a detail not shown here. Identical values can stand only once.

How the values were obtained:
[1] = tested on: lactic acid bacteria (LAB); assay: Susceptibility of lactic acid bacteria cocktail to sodium percarbonate in diluted molasses (Example 1); assay type: cell-based; conditions: for LAB level after treatment: approx. 2 hours, 32° C., molasses
Procedure: In this example, the susceptibility of yeast and lactic acid bacteria to sodium percarbonate was determined in molasses. Molasses was prepared by diluting molasses (B&G Foods, Inc., Roseland, N.J.) 1 part to 3.1 parts water to mimic conditions used for ethanol production based on a molasses feedstock (common in Latin America and Asia). The diluted molasses was autoclaved at 121° C. for 15 minutes to sterilize prior to use in the experiment. Cultures of lactic acid bacteria (LAB) (Lactobacillus plantarum, Lactobacillus brevis, Lactobacillus fermentum, and Lactobacillus paracasei) were prepared by inoculating MRS broth (available from Difco Laboratories Inc., Sparks, Md.) and incubating overnight at 32° C. with agitation. The bacteria were selected because they had previously been isolated from contaminated ethanol fermentation processes. Cultures of each organism were combined to create a bacterial cocktail and diluted in molasses to give 1.0×10^7, 1.0×10^6, and 1.0×10^5 bacteria/ml, or commonly expressed as colony forming units per milliliter or CFU/ml). Sodium percarbonate (Alfa Aesar, Ward Hill, Mass.) was prepared as a 2% solution immediately prior to use. Percarbonate was added to tubes containing 25 ml of inoculated molasses to give concentrations of 0, 100, 250, 500 and 1000 ppm. Tubes were incubated at 32° C. with agitation. After approximately 2 hours, bacterial levels present in each tube were enumerated by plating decimal dilutions of molasses onto the surface of MRS agar plates (Difco Laboratories Inc., Sparks, Md.). Plates were incubated overnight at 32° C.

Ethanol Red = assay: Susceptibility of fermenting yeast to sodium percarbonate in diluted molasses (Example 1, second part); assay type: cell-based; conditions: for yeast level after treatment: two hours, molasses
Procedure: (§1) In a second part of this Example 1, the yeasts strains Ethanol Red, FermPro S, and SuperStart (commonly used as fermenting yeasts in the ethanol industry) were cultured overnight in Yeast Peptone Dextrose broth (YPD, Difco Laboratories Inc., Sparks, Md.). Individual strains were then suspended in dilute molasses as above to give approximately 1×10^6 CFU/ml and treated with various concentration of percarbonate for two hours as described above.

SuperStart = assay: as above; assay type: cell-based; conditions: for yeast level after treatment: two hours, molasses
Procedure: as §1

[2] = tested on: lactic acid bacteria (LAB); assay: Inactivation of LAB in molasses at pH 4.2 and 5.4 (Examples 2 and 3); assay type: cell-based; conditions: for reduction in the amount of LAB: 2 hours; for reduction in the levels of LAB: 2-hour
Procedure: Molasses (B&G Foods, Inc., Roseland, N.J.) was diluted 1 to 3.1 with water and sterilized as in Example 1. The prepared molasses was then divided into two lots and pH-adjusted using sulfuric acid to approximately pH 4.2 and 5.4, respectively. Cultures of LAB were prepared as in Example 1 and inoculated into the molasses to give approximately 1×10^6 CFU/ml. Sodium percarbonate (Alfa Aesar, Ward Hill, Mass.) was added to give 250, 500, and 750 ppm. […] Levels of LAB were enumerated by dilution and plating onto the surface of MRS agar followed by incubation at 32° C. LAB were enumerated at approximately 2 and 24 hours after the addition of sodium percarbonate.
Molasses was prepared as above and adjusted to pH 4.2 and 5.4 using sulfuric acid. Cultures of lactic acid bacteria were prepared as indicated in Example 1 and inoculated into the molasses to give approximately 10E6 CFU/ml. Levels of bacteria were confirmed by plating serial dilutions of the inoculated molasses onto the surface of MRS agar plates as in Example 1. Calcium peroxide was added at the levels indicated. Bacterial levels were enumerated at 2 and 24 hours following addition as described above.

[3] = Stability of peroxygen-releasing compounds during storage at 40° C., iodometric titration of hydrogen peroxide (Example 4); assay type: physicochemical
Procedure: A dry oven was used to store samples of the peroxygen-releasing compounds at 40° C. The oven was allowed to equilibrate overnight. Two-gram duplicate samples of each of the following peroxygen-releasing compounds were dispensed into aluminum weighing dishes: sodium percarbonate (Alfa Aesar, Ward Hill, Mass.), sodium percarbonate FB 400 (Solvay Chemicals, Inc., Houston, Tex.), sodium percarbonate FB […] (Solvay Chemicals, Inc.), calcium peroxide (Sigma-Aldrich Co., St. […] After six days, samples were analyzed for levels of hydrogen peroxide using standard iodometric titration.

[4] = tested on: lactic acid bacteria (LAB); assay: Inactivation of LAB in dilute molasses at pH 5.0 in the presence of yeast Ethanol Red (Example 5); assay type: cell-based; conditions: for Log CFU/mL of LAB at hour indicated: 32° C.
Procedure: Cultures of lactic acid bacteria (LAB) were prepared as in Example 1 above. Molasses was diluted 1:3.1 with water as in previous examples. The fermenting yeast Ethanol Red was cultured as in example 1. Populations of lactic acid bacteria and yeasts were determined by dilution plating on MRS agar and YPD agar, respectively. Overnight cultures of LAB were mixed to prepare a bacterial cocktail and inoculated into molasses (diluted 1:3.1 with water) adjusted to pH 5.0 to give approximately 6.11 Log CFU/ml. Cultures of yeasts were added to each tube at a concentration of approximately 6.80 Log CFU/ml. […] The amount of UHP added was 1450 ppm. The amount of percarbonate added was 1812 ppm. Tubes were then incubated at 32° C. with agitation. […] Amphotericin inhibits the growth of yeast, facilitating enumeration of bacteria only.

[5] = 1.0×10^6 CFU/ml, 500 ppm percarbonate

- % Remaining H2O2 Day 0 [3]: 100%
- % Remaining H2O2 Day 6 [3]: 99%
- % Remaining H2O2 Day 14 [3]: 99%
- % H2O2 Day 0 ([3]; before storage, duplicate samples, listed as Sodium percarbonate (Alfa Aesar)): 27.48% and 27.38%
- % H2O2 Day 6 ([3]; storage at 40° C. in dry oven, day 6, duplicate samples, listed as Sodium percarbonate (Alfa Aesar)): 27.12% and 27.05%
- % H2O2 Day 14 ([3]; storage at 40° C. in dry oven, day 14, duplicate samples, listed as Sodium percarbonate (Alfa Aesar)): 27.11% and 26.99%
SMILES: O=C([O-])[O-].O=C([O-])[O-].OO.OO.OO.[Na+].[Na+].[Na+].[Na+] [Sodium percarbonate, sodium percarbonate]
- log reductions of LAB ([1]; 1000 ppm percarbonate): > 6 log
- LAB level (below detectable limit of the assay) ([1]; 1000 ppm percarbonate, all of the tested levels of LAB): < 10 CFU/ml
- reduction in the level of bacteria ([1]; initial LAB 1.0×10^6 or 1.0×10^7 CFU/ml, 500 ppm percarbonate): 2 log
- LAB level after treatment ([1]; inoculum 1.0 × 10^5 CFU/ml, 100 ppm percarbonate): 8.90 × 10^4 CFU/ml
- LAB level after treatment ([1]; inoculum 1.0 × 10^5 CFU/ml, 250 ppm percarbonate): 1.80 × 10^3 CFU/ml
- LAB level after treatment ([1]; inoculum 1.0 × 10^5 CFU/ml, 500 ppm percarbonate): 1.70 × 10^2 CFU/ml
- LAB level after treatment ([1]; inoculum 1.0 × 10^5 CFU/ml, 1000 ppm percarbonate): <10 CFU/ml
- LAB level after treatment ([1]; inoculum 1.0 × 10^6 CFU/ml, 100 ppm percarbonate): 8.50 × 10^5 CFU/ml
- LAB level after treatment ([1]; inoculum 1.0 × 10^6 CFU/ml, 250 ppm percarbonate): 1.55 × 10^5 CFU/ml
- LAB level after treatment ([1]; inoculum 1.0 × 10^6 CFU/ml, 500 ppm percarbonate): 1.17 × 10^4 CFU/ml
- LAB level after treatment ([1]; inoculum 1.0 × 10^6 CFU/ml, 1000 ppm percarbonate): <10 CFU/ml
- LAB level after treatment ([1]; inoculum 1.0 × 10^7 CFU/ml, 100 ppm percarbonate): 6.90 × 10^6 CFU/ml
- LAB level after treatment ([1]; inoculum 1.0 × 10^7 CFU/ml, 250 ppm percarbonate): 1.68 × 10^6 CFU/ml
- LAB level after treatment ([1]; inoculum 1.0 × 10^7 CFU/ml, 500 ppm percarbonate): 1.20 × 10^5 CFU/ml
- LAB level after treatment ([1]; inoculum 1.0 × 10^7 CFU/ml, 1000 ppm percarbonate): <10 CFU/ml
- reduction in the level of bacteria ([1]; starting LAB 1.0×10^5 CFU/ml, 500 ppm percarbonate, two hours): ~3 log
- reduction of yeast (Ethanol Red; [5]): < 1 log
- yeast level after treatment (Ethanol Red; 100 ppm percarbonate): 7.90 × 10^6 CFU/ml
- yeast level after treatment (Ethanol Red; 250 ppm percarbonate): 5.00 × 10^6 CFU/ml
- yeast level after treatment (Ethanol Red; 500 ppm percarbonate): 1.99 × 10^6 CFU/ml
- reduction of yeast (Ethanol Red; 1000 ppm percarbonate): approximately 1 log
- yeast level after treatment (Ethanol Red; 1000 ppm percarbonate): 4.90 × 10^5 CFU/ml
- reduction in the concentration of yeast (SuperStart; [5]): approximately 1 log
- yeast level after treatment (SuperStart; 100 ppm percarbonate): 1.22 × 10^6 CFU/ml
- yeast level after treatment (SuperStart; 250 ppm percarbonate): 3.80 × 10^5 CFU/ml
- yeast level after treatment (SuperStart; 500 ppm percarbonate): 1.07 × 10^5 CFU/ml
- yeast level after treatment (SuperStart; 1000 ppm percarbonate): 6.00 × 10^3 CFU/ml
- CFU/ml LAB at hour indicated ([2]; molasses at pH 4.2, 250 ppm (69 ppm as H2O2), hour 2): 7.85 × 10^5 CFU/ml
- CFU/ml LAB at hour indicated ([2]; molasses at pH 4.2, 250 ppm (69 ppm as H2O2), hour 24): 8.75 × 10^4 CFU/ml
- CFU/ml LAB at hour indicated ([2]; molasses at pH 4.2, 500 ppm (138 ppm as H2O2), hour 2): 8.40 × 10^5 CFU/ml
- CFU/ml LAB at hour indicated ([2]; molasses at pH 4.2, 500 ppm (138 ppm as H2O2), hour 24): 7.90 × 10^6 CFU/ml
- CFU/ml LAB at hour indicated ([2]; molasses at pH 4.2, 750 ppm (207 ppm as H2O2), hour 2): 3.10 × 10^5 CFU/ml
- CFU/ml LAB at hour indicated ([2]; molasses at pH 4.2, 750 ppm (207 ppm as H2O2), hour 24): 1.50 × 10^3 CFU/ml
- CFU/ml LAB at hour indicated ([2]; molasses at pH 5.4, 250 ppm (69 ppm as H2O2), hour 2): 3.95 × 10^5 CFU/ml
- CFU/ml LAB at hour indicated ([2]; molasses at pH 5.4, 250 ppm (69 ppm as H2O2), hour 24): 7.50 × 10^1 CFU/ml
- CFU/ml LAB at hour indicated ([2]; molasses at pH 5.4, 500 ppm (138 ppm as H2O2), hour 2): 3.85 × 10^4 CFU/ml
- CFU/ml LAB at hour indicated ([2]; molasses at pH 5.4, 500 ppm (138 ppm as H2O2), hour 24): 1.50 × 10^1 CFU/ml
- CFU/ml LAB at hour indicated ([2]; molasses at pH 5.4, 750 ppm (207 ppm as H2O2), hour 2): 2.80 × 10^4 CFU/ml
- CFU/ml LAB at hour indicated ([2]; molasses at pH 5.4, 750 ppm (207 ppm as H2O2), hour 24): <10 CFU/ml
- CFU/ml LAB at hour indicated ([2]; molasses at pH 5.4, 750 ppm (207 ppm as H2O2), hour 24, listed as sodium percarbonate): below the detection limit
- reduction in the amount of LAB ([2]; molasses pH 4.2, 250 ppm sodium percarbonate): approximately 1 log
- reduction in the amount of LAB ([2]; molasses pH 4.2, 500 ppm sodium percarbonate): approximately 1 log
- reduction in the amount of LAB ([2]; molasses pH 4.2, 750 ppm sodium percarbonate): approximately 1 log
- reduction in the number of LAB ([2]; molasses pH 4.2, 750 ppm sodium percarbonate, 24 hour): more than 3 log units
- reduction in the level of LAB ([2]; molasses pH 5.4, 250 ppm sodium percarbonate, 24-hour): ~6 log
- reduction in the levels of LAB ([2]; molasses pH 5.4, 500 ppm sodium percarbonate): approximately 2 log
- reduction in the levels of LAB ([2]; molasses pH 5.4, 750 ppm sodium percarbonate): approximately 2 log
- reduction of the population of LAB ([4]; 500 ppm as H2O2, 2 hours of incubation at 32° C., in presence of yeast): ~5 log units
- Log CFU/mL of LAB at hour indicated ([4]; 500 ppm as H2O2, hour 2, molasses pH 5.0, yeast approx. 6.80 Log CFU/ml): 1.95 Log CFU/mL
- Log CFU/mL of LAB at hour indicated ([4]; 500 ppm as H2O2, hour 6, molasses pH 5.0, yeast approx. 6.80 Log CFU/ml, listed as percarbonate): <1 Log CFU/mL
- Log CFU/mL of LAB at hour indicated ([4]; 500 ppm as H2O2, hour 6, molasses pH 5.0, yeast approx. 6.80 Log CFU/ml, listed as sodium percarbonate): below the detectable limit
